Here are results for three substances from patent publication US9023821B2, “Use of MicroRNA for treating diseases associated with a dysfunction of the cilia in multiciliated epithelial cells” (Centre National de la Recherche Scientifique, priority 2009, dated 2015).

Data set [1] concerns human airway epithelial cells (HAECs). Kind of data set: High-throughput sequencing (HTS) of miRNAs at four stages of differentiation of HAECs. The following applies: for Modulation (ratio of the level of intensity of expression in log2 in two stages of differentiation), D7 − D0 / Modulation (ratio of the level of intensity of expression in log2 in two stages of differentiation), FC − D7 / Modulation (ratio of the level of intensity of expression in log2 in two stages of differentiation), WD − FC / Abundance (%), D0 / Abundance (%), D7 / Abundance (%), FC / Abundance (%), WD / Modulation (ratio of the level of intensity of expression in log2 in two stages of differentiation), WD − D0 / Level of intensity of expression in log2, D0 / Level of intensity of expression in log2, D7 / Level of intensity of expression in log2, FC / Level of intensity of expression in log2, WD: HTS; for Abundance (%), D0: ALI-D0; for Abundance (%), D7: ALI-D7; for Abundance (%), FC: ALI-FC; for Abundance (%), WD: ALI-WD; for Level of intensity of expression in log2 At the differentiated stage (WD) measured in HTS: healthy human airway epithelial tissue; for Level of intensity of expression in log2, D0: ALI-D0 (proliferation); for Level of intensity of expression in log2, D7: ALI-D7 (proliferation and polarization); for Level of intensity of expression in log2, FC: ALI-FC (start of ciliogenesis); for Level of intensity of expression in log2, WD: ALI-WD (wholly differentiated epithelium). An excerpt:
The total RNAs were extracted from HAECs cultivated at the air-liquid interface at four stages of differentiation: ALI-D0 (0 day), ALI-D7 (7 days), ALI-FC (during appearance of the first cilia at about 14 days) and ALI-WD (wholly differentiated at about 21 days). The cells are lysed in reagent with Trizol® (Invitrogen). The total RNAs containing small RNAs and microRNAs are purified on Qiagen RNEasy columns (Qiagen) according to the supplier's instructions.
The total RNAs containing small RNAs and microRNAs are isolated as before. The procedure is based on the Applied Biosystems Ligase-Enhanced Genome Detection technology (LEGenD™); the SOLiD™ Small RNA Expression kit (Applied Biosystems, France) was used. With this method it is possible to convert the small RNAs of a sample into a library of double-stranded DNA; it was developed by Applied Biosystems SOLiD™ System for a new generation of high-throughput sequencing.
The high-throughput sequencing of the microRNAs was carried out according to the supplier's recommendations. Briefly, the total RNAs containing the small RNAs are hybridized (65° C., 10 min, then at 16° C., 5 min) and ligated (16° C., 2-16 h in a thermocycler) with the Adaptor Mix A for producing a matrix for sequencing the 5′ end of the small RNAs, or with the Adaptor Mix B for sequencing the 3′ end. The samples are then reverse-transcribed (42° C., 30 min) to synthesize the complementary DNA (cDNA). The library of small RNAs is amplified by PCR and after migration on polyacrylamide gel the amplified small RNAs are cut out and extracted from the gel according to their size (length of about 105-150 bases, according to the supplier's instructions), eluted and resuspended in nuclease-free water. The concentration of nucleic acids is then measured and normalized before proceeding with preparation of the samples for sequencing.
For each microRNA sequenced, the number of sequences of the 5p strand and of the 3p strand of the microRNA was normalized to 10^6 sequences and converted to percentage abundance of expression for each of the microRNAs. The data were then normalized according to a linear model and an empirical Bayesian method using software R. For subsequent analyses, only the microRNAs were retained for which the percentage expression (or abundance) is greater than 1% of the total of the microRNAs in at least one culture condition, with a |Log2 Ratio| below 0.5 and an adjusted P-value below 0.05.

The test system is the same in data set [2]. Put plainly: Agilent miRNA chips, miRNA expression at four stages of differentiation of HAECs. As to conditions: Table VI. An excerpt:
In parallel with the high-throughput sequencing of the microRNAs, the repertoire of expression of the microRNAs (microRNAome) is investigated using the technology of Agilent® microRNA chips. For this, RNA samples from the same patients as before were used, labeled and hybridized on Agilent® miRNA chips (Human miRNA Microarray v2, containing 866 human miRNAs and 89 human viral miRNAs, i.e. all the human miRNAs contained and referenced in Sanger miRBase v.12.0, Agilent Technologies, France) using the “miRNA labeling and hybridization” kit, following the supplier's instructions (Agilent Technologies).
The inventors then used the Agilent miRNA chips to investigate the repertoire of expression of the miRNAs of the human airway epithelium and compare the results obtained in high-throughput sequencing with those obtained with Agilent® commercial miRNA chips.

Data set [3] deals with basal cells and pyramidal cells of the airway epithelium. Put plainly: miRNA expression in sorted basal cells versus pyramidal cells (ciliated + secretory), HTS and Agilent chips. On the set-up: species or system human. As to the method:
After dissociation of the stroma of nasal polyps, the epithelial cells (about 20.10^6) are incubated in PBS-BSA-EDTA for 30 min and then incubated with labeled antibody CD151-PE and anti-TF (tissue factor)-FITC for 20 min, 4° C. (see Hajj, R. et al., Stem Cells 25, 139-148 (2007)). After washing twice, the cells are taken up in PBS-EDTA and incubated with DAPI for labeling the cells whose integrity has been altered.
Cell sorting was carried out on the FACSAria sorter (BD Biosciences) equipped with 3 lasers, blue, red and violet. Dead cells, aggregates and double cells were excluded. The doubly positive population of basal cells (CD151+/FT+) and the negative population of cylindrical cells (containing ciliated cells and mucus-secreting cells) (CD151−/FT−) were selected and sorted at a rate of 5000 events/s ([…]). The purity and identity of the sorted cells were then verified by cytometry and immunocytochemistry.
Like the native airway epithelium, the model of differentiation in vitro used in these tests consists of basal cells, ciliated cells and mucus-secreting cells. In order to identify the repertoires of the miRNAs specific to each of the cellular types, the inventors used cell sorting by flow cytometry by means of specific markers (Hajj, R. et al. 2007). Using this technique, adult airway progenitor cells (corresponding a priori to basal cells) were isolated, selected and sorted (such cells appear doubly positive for tetraspanin CD151 and for the tissue factor) from the pyramidal cells (i.e. ciliated cells and mucus-secreting cells) which appear negative for these same markers. These were purified from polyps or from nasal conchae obtained from 3 separate donors.
After extracting the total RNAs, the expression profiles of the miRNAs were established by means of Agilent® commercial chips or by high-throughput sequencing (HTS). […] For the first time, the inventors thus attribute a repertoire of expression of the miRNAs specifically to separate cellular types of the airway epithelium during differentiation.

With “hsa-miR-378: human miRNA, SEQ ID No. 43 (ACUGGACUUGGAGUCAGAAGG; expressed or natural sequence; listed as Homo sapiens)”, the “Modulation (ratio of the level of intensity of expression in log2 in two stages of differentiation) measured by high-throughput sequencing, D7 − D0” value in data set [1] (D7 − D0, Table VI) was found to be 2.15 log2. Also, the “Modulation (ratio of the level of intensity of expression in log2 in two stages of differentiation) measured by high-throughput sequencing, FC − D7” value in data set [1] (FC − D7, Table VI) is −0.26 log2. In data set [1], the “Modulation (ratio of the level of intensity of expression in log2 in two stages of differentiation), D7 − D0” value is reported as 2.15 log2; the “Modulation (ratio of the level of intensity of expression in log2 in two stages of differentiation), FC − D7” value is given as −0.26 log2; the “Modulation (ratio of the level of intensity of expression in log2 in two stages of differentiation), WD − FC” value was −0.39 log2; the “Abundance (%), D0” value amounted to 0.29%. Also, in data set [1], the “Abundance (%), D7” value turned out to be 1.30%; the “Abundance (%), FC” value was found to be 1.04%; the “Abundance (%), WD” value came to 0.61%. Also, the “Modulation (ratio of the level of intensity of expression in log2 in two stages of differentiation) measured by high-throughput sequencing, WD − D0” value in data set [1] (WD − D0, Table VI) came out at 1.50 log2. In data set [1] (WD − FC, Table VI), the “Modulation (ratio of the level of intensity of expression in log2 in two stages of differentiation) measured by high-throughput sequencing, WD − FC” value was −0.39 log2. Moreover, the “Level of intensity of expression in log2 At the differentiated stage (WD) measured in HTS” value in data set [1] (stage WD) was 11.70 log2. The “Level of intensity of expression in log2 measured by high-throughput sequencing, D0” value in data set [1] (stage D0, Table VI) worked out at 10.37 log2. Also, in data set [1] (stage D7, Table VI), the “Level of intensity of expression in log2 measured by high-throughput sequencing, D7” value was found to be 12.53 log2. Further, the “Level of intensity of expression in log2 measured by high-throughput sequencing, FC” value in data set [1] (stage FC, Table VI) came to 12.26 log2. For the same substance, in data set [1] (stage WD, Table VI), the “Level of intensity of expression in log2 measured by high-throughput sequencing, WD” value is reported as 11.87 log2. Besides, the “Modulation (ratio of the level of intensity of expression in log2 in two stages of differentiation) measured with the Agilent chips, D7 − D0” value in data set [2] (D7 − D0) is 3.23 log2. The “Modulation (ratio of the level of intensity of expression in log2 in two stages of differentiation) measured with the Agilent chips, FC − D7” value in data set [2] (FC − D7) is −0.81 log2. Besides, the “Modulation (ratio of the level of intensity of expression in log2 in two stages of differentiation) measured with the Agilent chips, WD − D0” value in data set [2] (WD − D0) is on record as 2.16 log2. For the same substance, the “Modulation (ratio of the level of intensity of expression in log2 in two stages of differentiation) measured with the Agilent chips, WD − FC” value in data set [2] (WD − FC) is on record as −0.26 log2. Moreover, the “Level of intensity of expression in log2 measured with the Agilent chips, D0” value in data set [2] (stage D0) is on record as 4.38 log2. The “Level of intensity of expression in log2 measured with the Agilent chips, D7” value in data set [2] (stage D7) is on record as 7.61 log2. Moreover, the “Level of intensity of expression in log2 measured with the Agilent chips, FC” value in data set [2] (stage FC) amounted to 6.80 log2. For the same substance, the “Level of intensity of expression in log2 measured with the Agilent chips, WD” value in data set [2] (stage WD) stood at 6.54 log2. Also, the “Modulation of expression of the miRNAs in pyramidal cells (323(−)) relative to basal cells 323(+)” value in data set [3] (HTS and Agilent chips) is −2.43. Further, in data set [3] (basal cells), the “Intensity of the level of expression in log2 in basal cells (323(+))” value was 4.11 log2. Further, the “Intensity of the level of expression in log2 in pyramidal cells (323(−))” value in data set [3] (pyramidal cells (ciliated + secretory)) was 1.68 log2.

On to “hsa-miR-449c: human miRNA, SEQ ID No. 201 (UAGGCAGUGUAUUGCUAGCGGCUGU; expressed or natural sequence; listed as Homo sapiens)”, for which, in data set [1], the “Modulation (ratio of the level of intensity of expression in log2 in two stages of differentiation), D7 − D0” value was determined as 2.59 log2; the “Modulation (ratio of the level of intensity of expression in log2 in two stages of differentiation), FC − D7” value is given as 7.44 log2; the “Modulation (ratio of the level of intensity of expression in log2 in two stages of differentiation), WD − D0” value is recorded as 9.44 log2; the “Modulation (ratio of the level of intensity of expression in log2 in two stages of differentiation), WD − FC” value was −0.59 log2. Moreover, in data set [1], the “Abundance (%), D0” value was 0.00%; the “Level of intensity of expression in log2, D0” value turned out to be 1.54 log2; the “Abundance (%), D7” value came out at 0.00%; the “Level of intensity of expression in log2, D7” value is 4.13 log2. Further, in data set [1], the “Abundance (%), FC” value was 0.32%; the “Level of intensity of expression in log2, FC” value was found to be 11.57 log2; the “Abundance (%), WD” value is on record as 0.20%; the “Level of intensity of expression in log2, WD” value was 10.98 log2. Also, the “Level of intensity of expression in log2 At the differentiated stage (WD) measured in HTS” value in data set [1] (stage WD) came out at 10.98 log2.

As to “hsa-miR-1975: human miRNA, SEQ ID No. 15 (CCCCCACAACCGCGCUUGACUAGCU; expressed or natural sequence; listed as Homo sapiens)”, in data set [1], the “Modulation (ratio of the level of intensity of expression in log2 in two stages of differentiation), D7 − D0” value is 2.13 log2; the “Modulation (ratio of the level of intensity of expression in log2 in two stages of differentiation), FC − D7” value is given as 0.34 log2; the “Modulation (ratio of the level of intensity of expression in log2 in two stages of differentiation), WD − D0” value was determined as 2.93 log2; the “Modulation (ratio of the level of intensity of expression in log2 in two stages of differentiation), WD − FC” value was 0.46 log2. Besides, in data set [1], the “Abundance (%), D0” value came to 0.48%; the “Level of intensity of expression in log2, D0” value was determined as 11.08 log2; the “Abundance (%), D7” value is reported as 2.09%; the “Level of intensity of expression in log2, D7” value worked out at 13.22 log2. In data set [1], the “Abundance (%), FC” value is recorded as 2.56%; the “Level of intensity of expression in log2, FC” value turned out to be 13.55 log2; the “Abundance (%), WD” value is 2.67%; the “Level of intensity of expression in log2, WD” value came out at 14.01 log2. Besides, the “Level of intensity of expression in log2 At the differentiated stage (WD) measured in HTS” value in data set [1] (stage WD) was 11.22 log2.
